According to US20260294906A1, “TREATING PSORIASIS USING A SMALL MOLECULE INHIBITOR OF TUMOR NECROSIS FACTOR ALPHA” (SANOFI, priority 2023, published 2026):
Where “and” joins values, the source holds several entries; their conditions need not be identical. Equal values may be shown once. Entries after “also recorded” stand apart in the source; their conditions may differ.

Key:
[1] = system: patients with mild to moderate psoriasis; assay: Clinical response by Target Lesion Severity (TLS) score, phase 1 placebo-controlled study; type: in vivo, human; details: for Mean (±SEM) % improvement from baseline in TLS score / ΔLSm (±SE) (Compound 1 minus placebo) in % improvement from baseline in TLS score: 200 mg BID; for LSm (±SE) % improvement from baseline in TLS score: 200 mg BID oral, fed, average of 2 lesions; for LSm (±SE) % improvement from baseline in TLS score / ΔLSm (±SE) (Compound 1 minus placebo) in % improvement from baseline in TLS score: MMRM
Description: A double-blind, randomized, placebo-controlled phase 1 study was carried out in participants with mild to moderate psoriasis. Study participants were randomized to 200 mg twice a day (BID) of Compound 1 or placebo in 2:1 ratio (approximately 24 in the treatment group and 12 in the placebo group). The study comprised an up to 4-week screening period, and a 4-week treatment period with Compound 1 or placebo. An end-of-study visit was carried out 10±3 days after the last investigational medicinal product (IMP) administration.
The primary objective of the study was to assess the safety, tolerability, and clinical efficacy of Compound 1 at 200 mg BID via oral administration. Also evaluated was the clinical effect of Compound 1 as compared to placebo on the percent change in PASI and TLS scores from baseline to week 2 and week 4. The percent change in PASI score from baseline to week 4 was determined. TLS score was also assessed over the same time period. Also assessed was the effect of Compound 1 on biomarkers of psoriasis. Blood samples collected at predetermined time points were processed to quantify serum levels of biomarkers, including interleukin (IL)-17A, IL-17F, and IL-22 by high sensitivity methods. IL-17A, IL-17F and IL-22 are the main cytokines released by Th17 cells. Plasma levels of Compound 1 were measured to assess pharmacokinetics in the study population.
(§1) Two study interventions were used, Compound 1 and placebo. The Compound 1 intervention comprised 4× tablets of Compound 1 50 mg twice daily, i.e. 200 mg BID, for 4 weeks. The placebo intervention was 4× tablets of placebo twice daily for 4 weeks. Tablets were administered orally.
The interventions were used in two arms of the study. Arm 1 was the experimental arm and it involved participants receiving 200 mg of Compound BID for 4 weeks under fed conditions. Arm 2 was the placebo arm and it involved participants receiving the matching placebo tablets for 4 weeks under fed conditions.
TLS score, which is a validated tool for psoriasis severity assessment, was used to evaluate severity and to assess clinical efficacy. It consists of a sum score of 3 clinical severity parameters (scaling, erythema, plaque elevation/induration; each graded on a 5-point severity scale; 0=clear, 1=slight, 2=mild, 3=moderate, and 4=severe) with a sum score ranging between 0 and 12 points (see, e.g., Czamowicki et al., J Am Acad Dermatol. (2014) 71(5):954-959.e1). The following assessment was used, in which TLS score was calculated as the sum of A+B+C (adapted from Fredriksson et al., Dermatologica (1978) 157(4):238-244):
The TLS score was assessed at baseline, 2 weeks and 4 weeks. Table 2 below presents the Least Square means (LSm)±Standard Error (SE) for each treatment and the Least Squares means difference (ΔLSm; Compound 1 minus placebo)±Standard Error (SE) with 90% confidence interval (CI) in percentage improvement from baseline in the TLS score (calculated as the average of the TLS score values collected from 2 lesions) at week 2 and week 4.
The results in Table 2 were obtained using the Mixed Model for Repeated Measures (MMRM).
Table 3 below presents the mean (±SEM) percentage improvement from baseline in the TLS score (calculated as the average of the TLS score values collected from 2 lesions) at week 2 and week 4 in the patient population with PASI<10 (mild) or PASI≥10 (moderate) at baseline.
The results in Table 3 come from standard descriptive analysis, ^(1)N=3, ^(2)N=15

[2] = system: participants with mild to moderate psoriasis; assay: 12-lead ECG (QTcF) in the clinical study; type: in vivo, human
Description: as §1
The following electrocardiogram data were recorded: • Standard 12-lead ECGs (safety ECGs) were recorded after at least 10 minutes in supine position using an electrocardiographic device. The electrodes were positioned at the same place for each ECG recording throughout the study (e.g., attachment sites of the leads were visualized on a transparent paper). • Triplicate ECGs were recorded within 5 minutes with at least 1 min between 2 replicates for all ECG. • Each ECG consisted of a 10-second recording of the 12 leads simultaneously, leading to: • A single 12-lead ECG (50 mm/s, 10 mm/mV) printout with heart rate, PR, QRS, QT, QTc automatic correction evaluation (by the ECG device), including date, time, and number of the participant, signature of the research physician, and at least 3 complexes for each lead. The Investigator's medical opinion and automatic values were recorded in the eCRF. This printout was retained at the site. A second printout was performed also, if needed. • A digital storage that enables eventual further reading by an ECG central laboratory: each digital file will be identified by theoretical time (day and time Dxx Txx Hxx), real date and real time (recorder time), Sponsor study code, participant number (i.e., 3 digits), and site and country numbers, if relevant. The digital recording, data storage, and transmission (whenever requested) need to comply with all applicable regulatory requirements (i.e., FDA 21 code of federal regulations [CFR], Part 11).
For AESI in this study, the Sponsor was to be informed immediately (i.e., within 24 hours), as per SAE notification guidelines, even if a seriousness criterion was not met, using the corresponding screens in the eCRF. • ALT increased >3×ULN. • QT prolongation (QTcF≥500 milli seconds [ms]) and/or a delta QTc change from baseline>60 ms (12-lead ECG). In the event of prolongation of QTc interval (automatic measurement)≥500 ms, confirmed by a manual reading by the Investigator or a physician delegated by the Investigator using the Fridericia formula for correcting QT, the participant was placed under supervision in a specialized setting. Investigational medicinal product administration was stopped, and appropriate blood samples collected. Subsequent ECG monitoring of the participant was then performed on a regular and clinically responsible basis until the QTc interval returned to a safe value as determined by the Investigator in agreement with the Sponsor. • Photosensitivity (Grade 2 and above AE due to sun exposure). • Pregnancy. • Symptomatic overdose. • An overdose (accidental or intentional) with the IMP is an event suspected by the Investigator or spontaneously notified by the participant (not based on systematic pills count) and defined as at least twice the intended dose within the intended therapeutic interval, adjusted according to the tested drug.

CN1C(=O)c2cccc(OC(F)F)c2[C@H]2C[C@@H]1c1nc3ccc(-c4cnc(C5(N)CCC5)nc4)cc3n12 [Compound 1, (7R,14R)-11-[2-(1-aminocyclobutyl)pyrimidin-5-yl]-1-(difluoromethoxy)-6-methyl-6,7-dihydro-7,14-methanobenzimidazo[1,2-b][2,5]benzodiazocin-5(14H)-one]
Mean (±SEM) % improvement from baseline in TLS score ([1]; PASI < 10 (mild) population, week 2, N = 16, SEM 3.61): 20.9%
Mean (±SEM) % improvement from baseline in TLS score ([1]; PASI < 10 (mild) population, week 4, N = 15, SEM 6.32): 37.0%
Mean (±SEM) % improvement from baseline in TLS score ([1]; PASI ≥ 10 (moderate) population, week 2, N = 9): 10.9% and 10.9 (6.20) %
Mean (±SEM) % improvement from baseline in TLS score ([1]; PASI ≥ 10 (moderate) population, week 4, N = 9): 39.7% and 39.7 (4.03) %
LSm (±SE) % improvement from baseline in TLS score ([1]; week 2, vs placebo 6.29%, p=0.032): 17.06% and 17.06 (3.13) %
ΔLSm (±SE) (Compound 1 minus placebo) in % improvement from baseline in TLS score ([1]; week 2, 90% CI 1.29 to 20.26): 10.77% and 10.77 (5.61) %
LSm (±SE) % improvement from baseline in TLS score ([1]; week 4, vs placebo 20.44%, p=0.012): 38.18% and 38.18 (4.33) %
ΔLSm (±SE) (Compound 1 minus placebo) in % improvement from baseline in TLS score ([1]; week 4, 90% CI 4.98 to 30.49): 17.7% and 17.74% and 17.74 (7.54) %
mean reduction in TLS score from baseline ([1]; week 4, FIG. 1, placebo around 1.25 points): around 2.5 points
QTcF change from baseline >60 msec and/or QTcF>480 msec ([2]; 200 mg BID): no QTcF change from baseline >60 msec and/or QTcF>480 msec
QTcF change from baseline, one participant ([2]; 200 mg BID, Day 8, baseline 426 msec): 33 ms
Number of participants with QTcF>450 msec ([2]; 200 mg BID, one single occasion on Day 8): One
QTcF, one participant ([2]; 200 mg BID, one single occasion on Day 8, baseline 426 msec): 459 ms
risk of QTc prolongation / impact on cardiac parameters (in words) ([2]; 4-week clinical trial): No indication for risks on QTc prolongation was observed; also recorded: neither was any significant impact on cardiac parameters (e.g., QTcF interval)
